Patent US8685947B2, “Compositions and methods for loop diuretics with consistent bioavailability” (Brown University, priority 2010, dated 2014)

Tested on: albino, male, Sprague-Dawley subjects
Assay: Diuretic bioactivity analysis: urine output in metabolic cages after oral gelatin capsule dosing
Format: in vivo, rats
Conditions: 10 mg/kg oral
Experimental: Subject rats were weighed at the start of each example. Each formulation was prepared and then loaded into size 9 gelatin capsules using a gelatin capsule filler (Torpac, Fairfield, N.J.). Each gelatin capsule was weighed on a microbalance (AD-4 Autobalance, Perkin Elmer, Waltham, Mass.) prior to and after drug loading to prepare oral doses of 2.5 mg, 5 mg, or 10 mg of drug per kg of body mass within 0.5 mg of dose mass.
Each subject was anesthetized in an induction chamber with 3.5% isoflurane (Novation, Irving, Tex.) for 5-10 minutes. Once anesthetized, the subject was removed from the induction chamber and dosed with a size 9 gelatin capsule containing one of the furosemide formulations using the gelatin capsule dosing syringe (Torpac, Fairfield, N.J.). As a negative control the same subjects were administered empty gelatin capsules without furosemide to quantify the basal urine mass output for comparison. Upon recovery from anesthesia, each subject was then transferred to a metabolic cage for urine collection over a 10 hour period.
Twelve albino, male, Sprague-Dawley subjects (450 g to 750 g) were used as subjects in the bioactivity analysis example. Subjects were housed in standard bedded cages in accordance with NIH and IACUC guidelines. Immediately after oral gavage with a furosemide formulation, subjects were housed individually in a metabolic cage rack (Unifab Cages, Kalamazoo, Mich.) as shown in FIG. 2. Subjects were given access to food and water ad libitum throughout the study. Metabolic cages were equipped with wire grating floors that allowed for free passage and collection of excreted material during the period of containing the subject. Feces were collected beneath the large opening wire grating floor by smaller opening wire mesh screen, and urine continued through the screen into a funnel for collection into pre-weighed glass scintillation vials (Cole-Parmer, Vernon Hills, Ill.). At two hour intervals after dosing, the glass scintillation vials were weighed (Mettler Toledo, Columbus, Ohio) to quantify urine output as a function of time and were then replaced. Increased urine output above baseline values was used as a non-invasive measure of diuretic activity of the various furosemide formulations examined. After each 10 hour study, subjects were housed in bedded cages for a recovery period of at least 48 hours between metabolic cage studies.
Each dose was administered to three subjects and the average urine mass produced in the two hour time periods was determined and was compared to the average output of the same subjects that received a sham dosage without any furosemide, referred to in the figures as the basal output.

SMILES: NS(=O)(=O)c1cc(C(=O)O)c(NCc2ccco2)cc1Cl [stock furosemide, Furosemide]
- total urine output at hour 10 relative to the micronized dose (N=3, not significantly different): 1.02 fold
- mean urine mass output two hours after dosing relative to basal urine output (N=3, p<0.01): 12.2 fold
- mean urine mass output two hours after dosing relative to equivalent dose of micronized furosemide (N=3, p<0.01): 8.6 fold
- urine output two hours after oral dosing compared to micronized furosemide and basal control (N=3, p<0.01): statistically significant greater urine output
